Target: T1, recombinant IL4I1 (Homo sapiens, UniProt Q96RQ9)
T1 construct: purchased R&D Systems 5684-AO-020
T1 sequence (Q96RQ9 22-567): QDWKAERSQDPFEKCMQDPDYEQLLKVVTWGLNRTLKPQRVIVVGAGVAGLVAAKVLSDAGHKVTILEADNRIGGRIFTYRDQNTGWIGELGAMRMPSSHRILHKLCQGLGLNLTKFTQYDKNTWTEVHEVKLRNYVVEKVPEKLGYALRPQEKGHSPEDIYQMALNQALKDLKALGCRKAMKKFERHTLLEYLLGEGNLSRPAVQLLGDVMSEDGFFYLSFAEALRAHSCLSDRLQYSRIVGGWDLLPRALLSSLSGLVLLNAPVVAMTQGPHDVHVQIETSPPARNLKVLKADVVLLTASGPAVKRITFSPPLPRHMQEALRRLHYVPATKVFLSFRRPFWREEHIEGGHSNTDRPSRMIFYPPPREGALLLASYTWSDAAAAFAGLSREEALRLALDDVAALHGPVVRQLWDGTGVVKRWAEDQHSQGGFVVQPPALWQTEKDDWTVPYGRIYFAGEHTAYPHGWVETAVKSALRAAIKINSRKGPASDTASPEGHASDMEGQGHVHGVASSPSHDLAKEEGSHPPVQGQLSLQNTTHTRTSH
Assay: IL4I1 Enzymatic Assay (Amplex Red/HRP coupled detection of H2O2, fluorescence)
Format: biochemical
Settings: 1 nM recombinant IL4I1; four-hour pre-incubation with compound; 1 mM each Phe, Tyr, Trp; ten-point titration
Method in brief: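 H2O2 output was coupled to resorufin fluorescence (ex 544/em 590) via 0.05 mM Amplex Red and 1 U/mL HRP. Substrate: Phe, Tyr, Trp at 1 mM each; enzyme 1 nM, 4 h compound pre-incubation, 120 min reaction, pH 7.0 Hepes. EC50 by nonlinear four-parameter regression, 1:3 ten-point titration.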

EC50	SMILES
9 nM	C[C@@H](CO)n1cc(C(=O)NCc2nnc(-c3ccccc3)s2)nn1 [Example 166, (S)-1-(1-hydroxypropan-2-yl)-N-((5-phenyl-1,3,4-thiadiazol-2-yl)methyl)-1H-1,2,3-triazole-4-carboxamide]
7 nM	C[C@@H](C(F)F)n1cc(C(=O)NCc2nnc(-c3ccccc3)s2)nn1 [Example 167, (S)-1-(1,1-difluoropropan-2-yl)-N-((5-phenyl-1,3,4-thiadiazol-2-yl)methyl)-1H-1,2,3-triazole-4-carboxamide]
7 nM	C[C@H](C(F)F)n1cc(C(=O)NCc2nnc(-c3ccccc3)s2)nn1 [Example 168, (R)-1-(1,1-difluoropropan-2-yl)-N-((5-phenyl-1,3,4-thiadiazol-2-yl)methyl)-1H-1,2,3-triazole-4-carboxamide]
68 nM	C[C@H](O)[C@@H](C)n1cc(C(=O)NCc2nnc(-c3ccccc3)s2)nn1 [Example 169, 1-((2R,3S)-3-hydroxybutan-2-yl)-N-((5-phenyl-1,3,4-thiadiazol-2-yl)methyl)-1H-1,2,3-triazole-4-carboxamide]
34 nM	C[C@H](CCF)n1cc(C(=O)NCc2nnc(-c3ccccc3)s2)nn1 [Example 170, (R)-1-(4-fluorobutan-2-yl)-N-((5-phenyl-1,3,4-thiadiazol-2-yl)methyl)-1H-1,2,3-triazole-4-carboxamide]
10 nM	O=C(NCc1nnc(-c2ccccc2)s1)c1cn(CCC(F)F)nn1 [Example 171, 1-(3,3-difluoropropyl)-N-((5-phenyl-1,3,4-thiadiazol-2-yl)methyl)-1H-1,2,3-triazole-4-carboxamide]
49 nM	O=C(NCc1nnc(-c2ccccc2)s1)c1cn(C23CC(C2)C3)nn1 [Example 172, 1-(bicyclo[1.1.1]pentan-1-yl)-N-((5-phenyl-1,3,4-thiadiazol-2-yl)methyl)-1H-1,2,3-triazole-4-carboxamide]
334 nM	O=C(NCc1nnc(-c2ccccc2)s1)c1cn(C23CC(F)(C2)C3)nn1 [Example 173, 1-(3-fluorobicyclo[1.1.1]pentan-1-yl)-N-((5-phenyl-1,3,4-thiadiazol-2-yl)methyl)-1H-1,2,3-triazole-4-carboxamide]
16 nM	COC1CC(n2cc(C(=O)NCc3nnc(-c4ccccc4)s3)nn2)C1 (centres unmarked) [Example 174, 1-(3-methoxycyclobutyl)-N-((5-phenyl-1,3,4-thiadiazol-2-yl)methyl)-1H-1,2,3-triazole-4-carboxamide]
80 nM	O=C(NCc1nnc(-c2ccccc2)s1)c1cn(C2CC(CO)(CO)C2)nn1 [Example 175, 1-(3,3-bis(hydroxymethyl)cyclobutyl)-N-((5-phenyl-1,3,4-thiadiazol-2-yl)methyl)-1H-1,2,3-triazole-4-carboxamide]
7 nM	O=C(NCc1nnc(-c2ccccc2)s1)c1cn(CC(F)(F)CO)nn1 [Example 176, 1-(2,2-difluoro-3-hydroxypropyl)-N-((5-phenyl-1,3,4-thiadiazol-2-yl)methyl)-1H-1,2,3-triazole-4-carboxamide]
114 nM	O=C(NCc1nnc(-c2ccccc2)s1)c1cn(C2CCCOC2)nn1 (centres unmarked) [Example 177, N-((5-phenyl-1,3,4-thiadiazol-2-yl)methyl)-1-(tetrahydro-2H-pyran-3-yl)-1H-1,2,3-triazole-4-carboxamide]
267 nM	CC1(n2cc(C(=O)NCc3nnc(-c4ccccc4)s3)nn2)CS(=O)(=O)C1 [Example 178, 1-(3-methyl-1,1-dioxidothietan-3-yl)-N-((5-phenyl-1,3,4-thiadiazol-2-yl)methyl)-1H-1,2,3-triazole-4-carboxamide]
238 nM	O=C(NCc1nnc(-c2ccccc2)s1)c1cn(C[C@H]2CCCO2)nn1 [Example 179, (R)-N-((5-phenyl-1,3,4-thiadiazol-2-yl)methyl)-1-((tetrahydrofuran-2-yl)methyl)-1H-1,2,3-triazole-4-carboxamide]
75 nM	C[C@@H](O)Cn1cc(C(=O)NCc2nnc(-c3ccccc3)s2)nn1 [Example 180, (R)-1-(2-hydroxypropyl)-N-((5-phenyl-1,3,4-thiadiazol-2-yl)methyl)-1H-1,2,3-triazole-4-carboxamide]
239 nM	O=C(NCc1nnc(-c2ccccc2)s1)c1cn(CC(O)C2CC2)nn1 (centres unmarked) [Example 181, 1-(2-cyclopropyl-2-hydroxyethyl)-N-((5-phenyl-1,3,4-thiadiazol-2-yl)methyl)-1H-1,2,3-triazole-4-carboxamide]

EC50	SMILES
610 nM	O=C(NCc1nnc(-c2ccccc2)s1)c1cn([C@@H]2CC(=O)N(C3CC3)C2)nn1 [Example 182, (R)-1-(1-cyclopropyl-5-oxopyrrolidin-3-yl)-N-((5-phenyl-1,3,4-thiadiazol-2-yl)methyl)-1H-1,2,3-triazole-4-carboxamide]
139 nM	CN1CC(n2cc(C(=O)NCc3nnc(-c4ccccc4)s3)nn2)CC1=O (centres unmarked) [Example 183, 1-(1-methyl-5-oxopyrrolidin-3-yl)-N-((5-phenyl-1,3,4-thiadiazol-2-yl)methyl)-1H-1,2,3-triazole-4-carboxamide]
77 nM	O=C(NCc1nnc(-c2ccccc2)s1)c1cn([C@H]2CCOC[C@@H]2O)nn1 [Example 184, 1-((3R,4S)-3-hydroxytetrahydro-2H-pyran-4-yl)-N-((5-phenyl-1,3,4-thiadiazol-2-yl)methyl)-1H-1,2,3-triazole-4-carboxamide]
25 nM	O=C(NCc1nnc(-c2ccccc2)s1)c1cn(CC2(CO)COC2)nn1 [Example 185, 1-((3-(hydroxymethyl)oxetan-3-yl)methyl)-N-((5-phenyl-1,3,4-thiadiazol-2-yl)methyl)-1H-1,2,3-triazole-4-carboxamide]
274 nM	C[C@H](O)[C@H](CO)n1cc(C(=O)NCc2nnc(-c3ccccc3)s2)nn1 [Example 186, 1-((2S,3S)-1,3-dihydroxybutan-2-yl)-N-((5-phenyl-1,3,4-thiadiazol-2-yl)methyl)-1H-1,2,3-triazole-4-carboxamide]
196 nM	C[C@@H](O)[C@H](CO)n1cc(C(=O)NCc2nnc(-c3ccccc3)s2)nn1 [Example 187, 1-((2S,3R)-1,3-dihydroxybutan-2-yl)-N-((5-phenyl-1,3,4-thiadiazol-2-yl)methyl)-1H-1,2,3-triazole-4-carboxamide]
155 nM	O=C(NCc1nnc(-c2ccccc2)s1)c1cn(C2CS(=O)(=O)CC2O)nn1 (centres unmarked) [Example 188, 1-(4-hydroxy-1,1-dioxidotetrahydrothiophen-3-yl)-N-((5-phenyl-1,3,4-thiadiazol-2-yl)methyl)-1H-1,2,3-triazole-4-carboxamide]
107 nM	O=C(NCc1nnc(-c2ccccc2)s1)c1cn([C@H]2COC[C@@H]2O)nn1 [Example 189, 1-((3S,4R)-4-hydroxytetrahydrofuran-3-yl)-N-((5-phenyl-1,3,4-thiadiazol-2-yl)methyl)-1H-1,2,3-triazole-4-carboxamide]
499 nM	O=C(NCc1nnc(-c2ccccc2)s1)c1cn([C@@H]2C[C@@H](O)[C@@H](O)C2)nn1 [Example 190, 1-((1s,3R,4S)-3,4-dihydroxycyclopentyl)-N-((5-phenyl-1,3,4-thiadiazol-2-yl)methyl)-1H-1,2,3-triazole-4-carboxamide]
12 nM	O=C(NCc1nnc(-c2ccccc2)s1)c1cn(CC(O)CO)nn1 (centres unmarked) [Example 191, 1-(2,3-dihydroxypropyl)-N-((5-phenyl-1,3,4-thiadiazol-2-yl)methyl)-1H-1,2,3-triazole-4-carboxamide]
264 nM	O=C1COC(Cn2cc(C(=O)NCc3nnc(-c4ccccc4)s3)nn2)CN1 (centres unmarked) [Example 192, 1-((5-oxomorpholin-2-yl)methyl)-N-((5-phenyl-1,3,4-thiadiazol-2-yl)methyl)-1H-1,2,3-triazole-4-carboxamide]
958 nM	CN(C)C(=O)CCn1cc(C(=O)NCc2nnc(-c3ccccc3)s2)nn1 [Example 193, 1-(3-(dimethylamino)-3-oxopropyl)-N-((5-phenyl-1,3,4-thiadiazol-2-yl)methyl)-1H-1,2,3-triazole-4-carboxamide]
7 nM	O=C(NCc1nnc(-c2ccccc2)s1)c1cn(CCCO)nn1 [Example 194, 1-(3-hydroxypropyl)-N-((5-phenyl-1,3,4-thiadiazol-2-yl)methyl)-1H-1,2,3-triazole-4-carboxamide]
532 nM	CCC(CO)(CO)n1cc(C(=O)NCc2nnc(-c3ccccc3)s2)nn1 [Example 195, 1-(1-hydroxy-2-(hydroxymethyl)butan-2-yl)-N-((5-phenyl-1,3,4-thiadiazol-2-yl)methyl)-1H-1,2,3-triazole-4-carboxamide]
11 nM	O=C(NCc1nnc(-c2ccccc2)s1)c1cn(C2CCC(O)C2)nn1 (centres unmarked) [Example 196, 1-(3-hydroxycyclopentyl)-N-((5-phenyl-1,3,4-thiadiazol-2-yl)methyl)-1H-1,2,3-triazole-4-carboxamide]
28 nM	N#CC1(n2cc(C(=O)NCc3nnc(-c4ccccc4)s3)nn2)CCOC1 (centres unmarked) [Example 197, 1-(3-cyanotetrahydrofuran-3-yl)-N-((5-phenyl-1,3,4-thiadiazol-2-yl)methyl)-1H-1,2,3-triazole-4-carboxamide]

From US20240336608A1, “IL4I1 INHIBITORS AND METHODS OF USE” (Merck Sharp & Dohme LLC, priority 2023, published 2024)
